According to patent US20110124523A1, “High Throughput Method for Detecting Apoptosis of Embryonic Stages of Metazoan Helminthic Parasites” (INSTITUTE OF LIFE SCIENCES, priority 2009, published 2011):
Several values for one entry are separate records, joined by “and”; a condition that tells them apart may be missing. Equal values may be shown once.

Assays:
[1] = test system: embryonic stages of S. digitata; experiment: Mitochondrial depolarization, mitoscreen JC-1 staining; assay type: cell-based, Setaria digitata; conditions: for GMI (Geometric Mean Intensity) of Fluorescence, Mitoscreen-jc-1 staining (Mitochondrial Depolarisation assay): 24 hr, depolarisation = reduction in GMI; for induction of mitochondrial depolarization (result in words): Mfs and eggs, mitoscreen JC-1 staining
Procedure: Adult female filarial worms Setaria digitata were collected from the peritoneum of cattle, slaughtered at a nearby abattoir in sterile Hanks Balanced Salt Solution (HBSS) medium (Sigma H 2387-1L) and transported to the laboratory in a sterile container. The medium containing 1% glucose (Sigma G 7528), Penicillin 100 units/ml, Streptomycin 100 μg/ml (Sigma P 4333). And Amphotericin-B 0.25 μg/ml (Sigma A 2942) was buffered with NaHCO3 (Sigma S 5761). About 5 to 7 worms were taken in a petridish, washed three times in medium, dissected into small pieces in 10 ml of medium under sterile conditions and incubated at 37° C. for 30 minutes to allow the release of embryonic stages (eggs and microfilariae) into the medium. The embryonic stages were harvested into sterile 15 ml. centrifuge tubes and washed three times by centrifuging at 300 g for 10 minutes each with medium and the final pellet was suspended in 1 ml. of RPMI-1640 medium (Sigma R 8005) supplemented with 10% FBS (Sigma F 2442)
The number of embryonic stages of S. digitata in the above preparation were counted using light microscope, and the suspension was taken in RPMI-1640 medium containing 10% FBS at 1×10^5 embryonic stages/ml. One ml. each was dispensed into individual wells of a 24 well tissue culture plate. One set of wells was taken as untreated control containing only medium with 10% FBS. […] Motility of the Mf was scored under an inverted microscope.
After appropriate treatment and incubation, each set of the cultured embryonic stages of S. digitata were harvested from the 24 well tissue culture plate separately in 15 ml. sterile centrifuge tubes, washed with PBS twice and stained as per requirement following manufacturer's instructions as described below. This was followed by two times washing with PBS and final suspension of the stained embryonic stages was taken in 0.5 ml of sheath fluid (BD Biosciences 342003) before their acquisition in the flow cytometer (BD FACS Calibur, Becten and Dickinson, USA). Analysis was performed on 10,000-acquired events depicted as Dot Plots and Histogram Plots using Cellquest Pro soft ware. All plots were representative of at least 3 experiments. The distinctly clustered populations obtained consistently in the Dot plots for the intra uterine embryonic stages of S. digitata (FIG. 1 a) were gated for Mfs (R-1) and eggs (R-2 and R-3) and analyzed for different assays for apoptosis as described below.
The mitochondrial membrane potential (ΔΨm) was measured using JC-1 probe (a cataionic lipophilic fluorochrome that accumulates in mitochondria in proportion to mitochondrial membrane potential) supplied in mitoscreen JC-1 kit (BD Biosciences 551302). Briefly a suspension of in-vitro cultured embryonic stages at 1×10^5 embryonic stages/ml. was mixed with 0.5 ml of freshly prepared JC-1 working solution for 10-15 minutes at 37° C. in a CO2 incubator followed by two times washing and final suspension of the embryonic stages in 1× assay buffer (supplied with the kit) before acquisition and analysis by flow cytometry. Reduction of fluorescence intensity of the mitoscreen JC-1 stained embryonic stages was taken as the degree of depolarization of mitochondria.

[2] = test system: embryonic stages of S. digitata; experiment: Presence of cytochrome-c in the cytoplasm, anti cytochrome c-FITC staining; assay type: cell-based, Setaria digitata; conditions: 24 hr
Procedure: Adult female filarial worms Setaria digitata were collected from the peritoneum of cattle, slaughtered at a nearby abattoir in sterile Hanks Balanced Salt Solution (HBSS) medium (Sigma H 2387-1L) and transported to the laboratory in a sterile container. The medium containing 1% glucose (Sigma G 7528), Penicillin 100 units/ml, Streptomycin 100 μg/ml (Sigma P 4333). And Amphotericin-B 0.25 μg/ml (Sigma A 2942) was buffered with NaHCO3 (Sigma S 5761). About 5 to 7 worms were taken in a petridish, washed three times in medium, dissected into small pieces in 10 ml of medium under sterile conditions and incubated at 37° C. for 30 minutes to allow the release of embryonic stages (eggs and microfilariae) into the medium. The embryonic stages were harvested into sterile 15 ml. centrifuge tubes and washed three times by centrifuging at 300 g for 10 minutes each with medium and the final pellet was suspended in 1 ml. of RPMI-1640 medium (Sigma R 8005) supplemented with 10% FBS (Sigma F 2442) The number of embryonic stages of S. digitata in the above preparation were counted using light microscope, and the suspension was taken in RPMI-1640 medium containing 10% FBS at 1×10^5 embryonic stages/ml. One ml. each was dispensed into individual wells of a 24 well tissue culture plate. One set of wells was taken as untreated control containing only medium with 10% FBS. […] Motility of the Mf was scored under an inverted microscope. After appropriate treatment and incubation, each set of the cultured embryonic stages of S. digitata were harvested from the 24 well tissue culture plate separately in 15 ml. sterile centrifuge tubes, washed with PBS twice and stained as per requirement following manufacturer's instructions as described below. This was followed by two times washing with PBS and final suspension of the stained embryonic stages was taken in 0.5 ml of sheath fluid (BD Biosciences 342003) before their acquisition in the flow cytometer (BD FACS Calibur, Becten and Dickinson, USA). Analysis was performed on 10,000-acquired events depicted as Dot Plots and Histogram Plots using Cellquest Pro soft ware. All plots were representative of at least 3 experiments. […] After in vitro culture for 24 hours with apoptosis inducing reagents the embryonic stages were harvested in 15 ml. sterile centrifuge tubes and fixed for 60 minutes at 0° C. in 1% paraformaldehyde (Sigma P 6148) in PBS. The suspension was washed first with PBS and then with 1× permeabilisation buffer (eBioscience 00-8333-56) and finally resuspended in 100 μl of 1× permeabilisation buffer at 1×10^5 embryonic stages per ml. This suspension was then incubated for 45 minutes with 20 μl of anti cytochrome c-FITC (eBioscience 11-6601-82). This was followed by washing with PBS twice and analysis by Flow cytometer.

| SMILES | GMI (Geometric Mean Intensity) of Fluorescence, Mitoscreen-jc-1 staining (Mitochondrial Depolarisation assay) ([1]; Eggs, 10 μM) | induction of mitochondrial depolarization (result in words) [1] | GMI (Geometric Mean Intensity) of Fluorescence, Mitoscreen-jc-1 staining (Mitochondrial Depolarisation assay) ([1]; Microfilariae, 10 μM) | GMI (Geometric Mean Intensity) of Fluorescence, Cyt-c Staining ([2]; Eggs, 10 μM) | GMI (Geometric Mean Intensity) of Fluorescence, Cyt-c Staining ([2]; Microfilariae, 10 μM) | GMI (Geometric Mean Intensity) of Fluorescence, Mitoscreen-jc-1 staining (Mitochondrial Depolarisation assay) ([1]; Eggs, 1 μM) | GMI (Geometric Mean Intensity) of Fluorescence, Mitoscreen-jc-1 staining (Mitochondrial Depolarisation assay) ([1]; Microfilariae, 1 μM) | GMI (Geometric Mean Intensity) of Fluorescence, Cyt-c Staining ([2]; Eggs, 1 μM) | GMI (Geometric Mean Intensity) of Fluorescence, Cyt-c Staining ([2]; Microfilariae, 1 μM) |
| --- | --- | --- | --- | --- | --- | --- | --- | --- | --- |
| OO [H2O2] | 1225.16 and 1165.12 and 1295.39 | dose dependent induction of mitochondrial depolarization was observed | 785.33 and 823.57 and 750.62 | 62.37 and 67.72 and 65.39 | 7.53 and 9.23 and 8.14 | – | – | – | – |
| CC1=CC(=O)c2c(O)cccc2C1=O [Plumbagin] | 970.16 and 1078.76 and 897.56 | dose dependent induction of mitochondrial depolarization was observed | 435.26 and 476.20 and 398.76 | 70.29 and 76.25 and 71.32 | 18.69 and 20.32 and 17.56 | – | – | – | – |
| CN[C@@H]1C[C@H]2O[C@@](C)([C@@H]1OC)n1c3ccccc3c3c4c(c5c6ccccc6n2c5c31)C(=O)NC4 [Staurosporine] | – | – | – | – | – | 1549.35 and 1500.65 and 1510.50 | 895.30 and 979.20 and 930.16 | 54.33 and 61.66 and 57.27 | 6.02 and 4.20 |
